Assay results as given in the RepoRT retention time repository.

Assay: HILIC, HILICON iHILIC-(P) Classic, HILIC, PEEK, 100 × 2.1 mm, 5 µm, 40 °C, 0.2 mL/min, estimated dead time 1.1 min; A: water + 20 mM ammonium carbonate + 5 µM medronic acid; B: 10% water + 90% acetonitrile + 2 mM ammonium carbonate + 0.5 µM medronic acid; gradient (min/%B) 0/95 18/55 19/20 22/20 22.5/95 24/95 26/95
Conditions: stereoisomer not certain

Row | Compound | LC retention time [min]
1 | CC(=O)SCCNC(=O)CCNC(=O)C(O)C(C)(C)COP(=O)(O)OP(=O)(O)OCC1OC(n2cnc3c(N)ncnc32)C(O)C1OP(=O)(O)O (centres undefined) [Acetyl-CoA] | 9.93
2 | O=C(O)CCC(=O)C(=O)O [2-Oxoglutaric acid] | 12.7
3 | NC(=O)c1ccc[n+](C2OC(COP(=O)(O)OP(=O)(O)OCC3OC(n4cnc5c(N)ncnc54)C(O)C3O)C(O)C2O)c1 (centres undefined) [NAD] | 11.1
4 | O=C(O)CC(C(=O)O)C(O)C(=O)O (centres undefined) [Isocitric acid] | 15.5
5 | Nc1ncnc2c1ncn2C1OC(CO)C(O)C1O (centres undefined) [Adenosine] | 4.79
6 | NC(N)=NCCCC(N)C(=O)O (centres undefined) [Arginine] | 18.5
7 | O=C(CO)C(O)C(O)C(O)COP(=O)(O)O (centres undefined) [Fructose 6-phosphate] | 11.9
8 | O=P(O)(O)OCC1OC(O)C(O)C1O (centres undefined) [Pentose-phosphate] | 11.6
9 | NC(=O)c1ccc[n+](C2OC(COP(=O)(O)OP(=O)(O)OCC3OC(n4cnc5c(N)ncnc54)C(OP(=O)(O)O)C3O)C(O)C2O)c1 (centres undefined) [NADP] | 14.4
10 | O=C(O)CCC(=O)O [Succinic Acid] | 11.2
11 | Nc1ncnc2c1ncn2C1OC(COP(=O)(O)OP(=O)(O)OP(=O)(O)O)C(O)C1O (centres undefined) [ATP] | 13.3
12 | NC(=O)CCC(N)C(=O)O (centres undefined) [Glutamine] | 9.81
13 | NC(=O)CC(N)C(=O)O (centres undefined) [Asparagine] | 9.65
14 | O=C(O)C=CC(=O)O [Fumaric Acid] | 12.4
15 | O=C(CO)COP(=O)(O)O [Triose phosphate] | 11.8
16 | NC(CCC(=O)NC(CSSCC(NC(=O)CCC(N)C(=O)O)C(=O)NCC(=O)O)C(=O)NCC(=O)O)C(=O)O (centres undefined) [GSSG] | 14.7
17 | NC(CCC(=O)O)C(=O)O (centres undefined) [Glutamic acid] | 9.7

Row | Compound | LC retention time [min]
18 | NC(CC(=O)O)C(=O)O (centres undefined) [Aspartic Acid] | 10.2
19 | O=C(O)CC(O)C(=O)O (centres undefined) [Malic Acid] | 11.9
20 | NCCCCC(N)C(=O)O (centres undefined) [Lysine] | 18.3
21 | O=P(O)(O)OC1OC(CO)C(O)C(O)C1O (centres undefined) [Glucose-1-phosphate] | 11.9
22 | CC(O)C(=O)O (centres undefined) [Lactic Acid] | 3.92
23 | NC(=O)C1=CN(C2OC(COP(=O)(O)OP(=O)(O)OCC3OC(n4cnc5c(N)ncnc54)C(O)C3O)C(O)C2O)C=CC1 (centres undefined) [NADH] | 9.08
24 | NC(=O)C1=CN(C2OC(COP(=O)(O)OP(=O)(O)OCC3OC(n4cnc5c(N)ncnc54)C(OP(=O)(O)O)C3O)C(O)C2O)C=CC1 (centres undefined) [NADPH] | 15.2
25 | Nc1ncnc2c1ncn2C1OC(COP(=O)(O)O)C(O)C1O (centres undefined) [AMP] | 10.1
26 | CC(=O)NC1C(OP(=O)(O)OP(=O)(O)OCC2OC(n3ccc(=O)[nH]c3=O)C(O)C2O)OC(CO)C(O)C1O (centres undefined) [UDP-GlcNAc] | 12
27 | O=C(O)CC(O)(CC(=O)O)C(=O)O [Citric acid] | 15.3
28 | Nc1ncnc2c1ncn2C1OC(COP(=O)(O)OP(=O)(O)O)C(O)C1O (centres undefined) [ADP] | 11.9
29 | O=P(O)(O)OCC1OC(O)C(O)C(O)C1O (centres undefined) [Glucose-6-phosphate] | 13.9
30 | CC(C)(COP(=O)(O)OP(=O)(O)OCC1OC(n2cnc3c(N)ncnc32)C(O)C1OP(=O)(O)O)C(O)C(=O)NCCC(=O)NCCS (centres undefined) [CoenzymeA] | 11.5
31 | C=C(OP(=O)(O)O)C(=O)O [PEP] | 14.6
32 | NC(CCC(=O)NC(CS)C(=O)NCC(=O)O)C(=O)O (centres undefined) [GSH] | 10.2
33 | O=P(O)(O)OCC(O)CO (centres undefined) [Glycerol-3-phosphate] | 10.8
34 | O=P(O)(O)OCC1OC(O)(COP(=O)(O)O)C(O)C1O (centres undefined) [Fructose-1,6-bisphosphate] | 16.4
